Columns and labels:
Human AT1 = molecular target: T1, Human AT1 (Homo sapiens, UniProt P30556); assay: Angiotensin II AT1 receptor inhibition; format: binding; details: Human AT1, at 1.0 × 10^−8M drug, N = 2
T1 sequence (P30556 1-359): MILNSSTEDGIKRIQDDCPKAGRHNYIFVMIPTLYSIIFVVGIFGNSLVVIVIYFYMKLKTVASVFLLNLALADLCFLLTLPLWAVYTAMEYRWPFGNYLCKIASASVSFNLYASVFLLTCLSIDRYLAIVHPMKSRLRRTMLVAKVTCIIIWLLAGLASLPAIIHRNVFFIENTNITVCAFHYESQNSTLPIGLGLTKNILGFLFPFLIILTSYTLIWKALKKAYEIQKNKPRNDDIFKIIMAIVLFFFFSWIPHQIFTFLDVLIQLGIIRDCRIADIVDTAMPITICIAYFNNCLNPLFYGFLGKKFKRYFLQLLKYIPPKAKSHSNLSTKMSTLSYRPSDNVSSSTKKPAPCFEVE

AT2, angiotensin II = molecular target: T2, AT2, angiotensin II (Homo sapiens, UniProt P50052); assay: Angiotensin II AT2 receptor inhibition; format: binding; details: at 1.0 × 10^−9M drug, N = 2
T2 sequence (P50052 1-363): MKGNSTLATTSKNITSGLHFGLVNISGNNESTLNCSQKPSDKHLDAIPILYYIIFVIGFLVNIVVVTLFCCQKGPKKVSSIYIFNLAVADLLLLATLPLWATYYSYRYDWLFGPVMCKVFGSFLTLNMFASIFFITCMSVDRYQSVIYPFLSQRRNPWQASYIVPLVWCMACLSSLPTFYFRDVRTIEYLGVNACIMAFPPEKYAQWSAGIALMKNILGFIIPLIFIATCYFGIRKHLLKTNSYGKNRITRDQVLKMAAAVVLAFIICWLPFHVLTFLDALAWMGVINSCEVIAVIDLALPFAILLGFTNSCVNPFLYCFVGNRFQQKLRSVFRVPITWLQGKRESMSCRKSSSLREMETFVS

[1] = system: Preglomerular vascular smooth muscle cells; assay: O2- generation in Ang II-stimulated preglomerular vascular smooth muscle cells; format: cell-based; details: cells stimulated by 10^−6 M Ang II
Description: Preglomerular vascular smooth muscle cells were stimulated by 10^−6 M Ang II to produce O2^−.

[2] = in vivo; cited from earlier work

## CCCc1nc2c(C)cc(-c3nc4ccccc4n3C)cc2n1Cc1ccc(-c2ccccc2C(=O)O)cc1 [Telmisartan]
Human AT1
  inhibition at 0.01 µM: 52.7%
AT2, angiotensin II
  inhibition at 0.001 µM: 6.37%
[1]
  inhibition of O2− generation (antioxidant action): do not have antioxidant actions
[2]
  half-life: 24 h
